The data set is described as follows: Human HepG2 cell viability assay in 384 well format. Format: toxicity, cell-based. Also on record: dose 125 nL, time 70.5 hour; cytotoxicity at 70.5 h: concentration not given beside the values. The conditions noted are these: HepG2 cells, read-out: Inhibition.

Regarding `Cc1cc(NC(=O)CN2CCCC2c2noc(C3CC3)n2)no1` (stereo not drawn), the cytotoxicity at 70.5 h is 1.09%.
With `Cc1cc(N2CCC(N(C)C(=O)Nc3ccccc3)CC2)nc(C)n1`, the cytotoxicity at 70.5 h was 2.35%.
In the case of `O=C(NCC(O)c1ccccc1Cl)c1cccc(-n2cnnn2)c1` (stereo not drawn), the cytotoxicity at 70.5 h was -0.179%.
As to `C1CC1c1nsc(N2CCN(C3CC3)CC2)n1`, the cytotoxicity at 70.5 h is 1.41%.
For `Cn1c(CN2CCN(CC3CC3)CC2)nnc1C1CCC1`, the cytotoxicity at 70.5 h was found to be 20.3%.
As for `CCN1CCCC1CN(CCN(C)C)S(=O)(=O)c1cccc(C#N)c1` (stereo not drawn), the cytotoxicity at 70.5 h is -1.36%.
Regarding `Cc1cccc(CNCc2c(C(C)C)nn(C)c2N2CCOCC2)n1`, the cytotoxicity at 70.5 h is 0.6%.
With `Cc1nc(C)n(CC2CCCN2CC(=O)NCCc2ccccc2)n1` (stereo not drawn), the cytotoxicity at 70.5 h was -4.21%.
On to `Cc1cc(CNC(=O)N2CCN(c3ccccc3)CC2)no1`, for which the cytotoxicity at 70.5 h is -3.89%.
For the compound `CCS(=O)(=O)CCn1ccc(NC(=O)CCc2cccc(C)c2)n1`, the cytotoxicity at 70.5 h was -2.75%.
With `CC(Oc1ccccc1C(F)(F)F)C(=O)NS(=O)(=O)C(C)C` (stereo not drawn), the cytotoxicity at 70.5 h came out at 1.98%.
For `Cc1nc(C)n(C2CCCN(C(=O)c3ccc(F)cc3F)C2)n1` (stereo not drawn), the cytotoxicity at 70.5 h was -4.94%.
Consider `Cc1nc(C)c(CNC(=O)NC(c2nnc3n2CCC3)C(C)C)s1` (stereo not drawn), for which the cytotoxicity at 70.5 h is -1.59%.
Consider `Cc1ncsc1C(=O)NCCOc1ncc(Cl)cc1Cl`, for which the cytotoxicity at 70.5 h worked out at 1.13%.
Consider `CC(C)C(NC(=O)NCC1(CO)CC1)c1nnc2n1CCC2` (stereo not drawn), for which the cytotoxicity at 70.5 h was -4.32%.
For the compound `Cc1cc(CNC(=O)N2CCN(c3nc(C)c(C)s3)CC2)no1`, the cytotoxicity at 70.5 h came to 7.38%.
For `Cc1nccc(C(=O)N2CCCN(Cc3cnn(C(C)C)c3)CC2)n1` the value was -4.5%; for `CCn1ccnc1CN1CCN(CCC(=O)NC(C)(C)C)CC1C` (stereo not drawn), -1.52%; for `CCc1ccc(NC(=O)N2C[C@H]3C[C@H](C(=O)N4CCCC4)[C@@H](C2)O3)cc1`, 21%.
As to `O=C(c1ccc[nH]1)N1CCc2ncc(Cn3cccn3)n2CC1`, the cytotoxicity at 70.5 h was 18.1%.
As for `O=C(Nc1ccc(F)cc1)N1C[C@H]2C[C@H](C(=O)N3CCCC3)[C@@H](C1)O2`, the cytotoxicity at 70.5 h is -9.47%.
The same measure for `CN(C)C(=O)N1CCC(c2nc3ccc(-c4ccccc4)cn3n2)CC1`: -4.01%; for `CC(C)OC[C@H]1CCC[C@]12CN(S(=O)(=O)c1cn(C)cn1)CCO2`: -4.1%.
For the compound `O=c1cc(Cn2ccnc2)nc2n1CCCN(S(=O)(=O)C1CC1)C2`, the cytotoxicity at 70.5 h was -11.3%.
The same measure for `Cc1cc(C(=O)N2CC[C@H]3[C@H]2CCN3S(C)(=O)=O)c(C)o1`: 0.739%.
For `CN(C)C(=O)CN1CCc2ncnc(C3CC3)c2CC1` the value was 2.76%.
In the case of `O=C(O)CC1CN(Cc2ccccc2)CCO1` (stereo not drawn), the cytotoxicity at 70.5 h was -0.381%.
Take `O=C(NCc1cncc2c1CCN(C1CCOCC1)C2)c1ccno1`: the cytotoxicity at 70.5 h is -7.6%.
For `O=C(NCc1cncc2c1CCN(C1CCOCC1)C2)c1ccco1` the value was -2.15%.
For `O=C(C1CCCO1)N1CCCC2(CCN(c3cccnc3)CC2)C1` (stereo not drawn), the cytotoxicity at 70.5 h is -3.98%.
`Cn1ccnc1CN1CCc2onc(COCC3CC3)c2C1`: the cytotoxicity at 70.5 h is -4.62%.
As for `CN(C)C(=O)CN1CC[C@]2(CN(CC3CC3)C[C@H]2c2ccccc2)C1=O`, the cytotoxicity at 70.5 h is -6.06%.
On to `CN(C)Cc1cc(=O)n2c(n1)CN(S(=O)(=O)C1CC1)CCC2`, for which the cytotoxicity at 70.5 h is -6.08%.
As to `CN(C)C(=O)CN1CCc2ncnc(NC3CCC3)c2CC1`, the cytotoxicity at 70.5 h came to 0.00388%.
Consider `Cc1cc(C)cc(CN2C[C@@H]3OCCN(CC(=O)N(C)C)[C@@H]3C2)c1`, for which the cytotoxicity at 70.5 h is -0.77%.
For `Cn1cc(CN2CCC[C@]3(C[C@@H](Oc4ncccc4F)CO3)C2)cn1` the value was -6.45%.
For the compound `COc1ncccc1CN1C[C@H]2CCN(C(C)C)C[C@H]2C1`, the cytotoxicity at 70.5 h was -4.86%.
`Cc1nc(CN2CCN3C[C@H](Oc4cncnc4)C[C@H]3C2)cs1`: the cytotoxicity at 70.5 h was 5.24%.

For the origin of these results see ChEMBL document CHEMBL3507680, “University of Dundee, Gates Library screen for HepG2 cell viability”.
